Patent US20120142646A1, “Novel Compounds 621” (priority 2006, published 2012)

Target: T1, Adrenergic β2 (Homo sapiens, UniProt P07550)
T1 construct: Adherent H292 cells were removed from tissue culture flasks; endogenous in cells; host or cells: H292 cells
Assay: Adrenergic β2 mediated cAMP production in H292 cells (AlphaScreen cAMP detection)
Format: cell-based
Set-up: key to β2 Int Act: fraction of formoterol maximum activity (formoterol = 1)
Summary of the method: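 H292 cells pre-treated 10 min with rolipram (300 μM final), then given agonist for 60 min at room temperature in HBSS/10 mM HEPES pH 7.4, 1.6% DMSO final. Lysate cAMP measured by AlphaScreen against a cAMP standard curve. Four-parameter fit gives pEC50; intrinsic activity relative to formoterol maximum.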

T1 sequence (P07550 whole entry): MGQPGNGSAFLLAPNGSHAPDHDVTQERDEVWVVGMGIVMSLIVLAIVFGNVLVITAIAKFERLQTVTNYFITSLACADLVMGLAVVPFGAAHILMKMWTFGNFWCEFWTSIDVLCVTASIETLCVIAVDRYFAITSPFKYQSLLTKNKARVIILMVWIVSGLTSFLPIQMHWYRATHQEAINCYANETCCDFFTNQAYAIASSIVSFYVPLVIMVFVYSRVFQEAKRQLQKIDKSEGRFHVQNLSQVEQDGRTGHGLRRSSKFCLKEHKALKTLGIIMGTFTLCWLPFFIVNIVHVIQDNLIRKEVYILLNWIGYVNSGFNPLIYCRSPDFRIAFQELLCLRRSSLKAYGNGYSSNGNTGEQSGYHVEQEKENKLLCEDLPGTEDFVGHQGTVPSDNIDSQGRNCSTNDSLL

Question: With CCCCC[C@@H](C)N(CCNCCc1ccc(O)c2c1OCC(=O)N2)C(=O)CCNCCc1ccccc1 [Example 60, (R)—N-(Heptan-2-yl)-N-(2-(2-(5-hydroxy-3-oxo-3,4-dihydro-2H-benzo[b][1,4]oxazin-8-yl)ethylamino)ethyl)-3-(phenethylamino)propanamide bis(trifluoroacetate)] as the molecule, how does the EC50 (H292 cells, cAMP production, 60 minutes at room temperature, 300 μM rolipram, read-out: β2 pEC50 (converted)) read?
Answer: 3.98 nM

Question: What about the “β2 Int Act” value (Intrinsic Activity as a fraction relative to the maximum activity determined for formoterol) of the same molecule?
Answer: 0.92
